Assay results taken from patent publication US10844070B2, “Peripherally restricted GABA positive allosteric modulators for the treatment of irritable bowel syndrome and other ailments of the peripheral nervous system” (The Johns Hopkins University, priority 2014, dated 2020).
“Also recorded” adds a separate entry of the source.

What was measured:
Assay type in all cases: in vivo
[1] = system: C57B/6 mice; assay: Whole gut transit time (WGTT), carmine red gavage; conditions: 1, 3 and 10 mg/kg by gavage in 50% propylene glycol; statistically significant at all doses
Method: Dose responses of the effect of Compound 1 on the whole gut transit time (WGTT) were examined. Compound 1 (0, 1, 3 and 10 mg/kg) in 50% propylene glycol was administrated by gavage (5 ml/kg), followed by gavage of 0.2 ml carmine red solution (6% carmine red in 0.5% methylcellulose) into C57B/6 mice. Mice were then placed in a white cardboard box and the time was recorded as time 0. The color of stool was observed every 10 min until the red dye appeared in stool. The time that first red stool appears was recorded as the ending time. The difference between the ending time and time 0 is used to present WGTT (min).

[2] = system: C57B/6 mice; assay: Distal colon transit time (DCTT), glass bead expulsion; conditions: 3 mg/kg gavage
Method: We examined the time course of Compound 1 on distal colon transit time (DCTT) in C57B/6 mice to assess the colon motility. DCTT was performed by gently pushing a 2 mm glass bead into rectal 2 cm and then placing the mouse into a white box (time 0). The time that the glass bead was released from rectal is presented as DCTT (min). Mice were gavaged with 0 or 3 mg/kg of Compound 1 and DTCC was conducted at 30, 60, 90 and 120 min after the administration of Compound 1. […] The increase in the DCTT reached a peak at 90 min and returned at 2 hours after the administration of Compound 1 (FIG. 2).

[3] = Stool composition (total stool weight, water content); conditions: stools collected for 3 hours
Method: After gavage of Compound 1 (3 and 10 mg/kg), stools were collected immediately after expulsion for 3 hours. The wet stools were weighted as total stool weight followed by dry at 65° C. for 24 hours and weight as dry stool weight. The percent of water content in the stool was calculated by (total stool weight-dry stool weight)/total stool weight x 100.

[4] = system: IBS mice; assay: Pain sensitivity in IBS mouse model (VMR to colorectal distension)
Method: IBS visceral pain model, induced by neonatal rectal irritation. Colonic pain sensitivity to graded colorectal balloon distension (CRD, 15, 30, 50 and 70 mmHg) was determined by visceromotor response (VMR) measured by electromyography of external oblique muscle.

[5] = Measurement of brain and plasma levels by LC/MS; conditions: mice, 10 mg/kg oral gavage, after 30 minutes
Method: Compound 1 was administered to 5 mice at a dose of 10 mg/kg as a solution in 50% propylene glycol by oral gavage (5 ml/kg), After 30 minutes, mice were sacrificed and plasma and brain were harvested. The concentration of Compound 1 in plasma and brain were measured by LC/MS.

O=C(O)c1nc2n(n1)-c1ccc(Cl)cc1C(c1ccccc1F)=NC2 [Compound 1, 8-Chloro-6-(2-fluorophenyl)-4H-[1,2,4]triazolo[1,5-a][1,4]benzodiazepine-2-carboxylic acid]
effect on whole gut transit time (WGTT) [1]: dose-dependently increased WGTT
time at which DCTT returned after administration [2]: 2 h
time at which the increase in DCTT reached a peak [2]: 90 min
effect on distal colon transit time (DCTT) ([2]; as early as 30 min after gavage): significantly increased the DCTT
effect on percent of water content in the stool ([3]; 3 mg/kg gavage): not
effect on total stool weight ([3]; 3 mg/kg gavage): not
effect on percent of water content in the stool ([3]; 10 mg/kg gavage): significantly reduced
effect on total stool weight ([3]; 10 mg/kg gavage): significantly reduced
effect on hyperalgesia (VMR to CRD) ([4]; IBS mice, 10 mg/kg, Two-Way ANOVA): significantly attenuated the hyperalgesia; also recorded: significantly reduced
effect on pain sensitivity (VMR to CRD) ([4]; control mice, 10 mg/kg (data not shown)): no effect was observed
average plasma concentration [5]: 1061+189 nM
concentration at 30 min ([5]; mouse, brain, limit of quantitation 62.5 nM): < 62.5 nM
